pIC50: −log10 of the molar value. Where two headings read alike, the source gives them in different places.
Tests used:
Assay type in all cases: biochemical
CSNK1A1 = CSNK1A1 (Homo sapiens (Human), UniProt P48729); assay: CSNK1A1 Assay 2 (ADP-Glo, 1 μM ATP); settings: median, read-out: CSNK1A1 Assay 2 IC50 [mol/l] (median)
Outline: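 Enzyme (~0.0375 ng/μL) preincubated 15 min at 22° C with compound in HEPES pH 7.5 buffer, then reacted with 1 μM ATP and biotin-Ahx-KRRRAL-pS-VASLPGL peptide. ADP product measured by ADP-Glo luminescence after 1 h ATP depletion and 1 h detection at 22° C.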

[1] = biological target: wild-type Epidermal Growth Factor Receptor (EGFR) (Homo sapiens (Human), UniProt P00533); assay: WT-EGFR Kinase Assay (TR-FRET, 2 mM ATP)
Outline: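 GST-tagged human EGFR (R669–A1210, Sf9-expressed) preincubated 15 min at 22° C with compound in pH 7.0 Hepes/MgCl2 buffer, then reacted at 2 mM ATP with a biotinylated peptide substrate. Phosphorylation detected by TR-FRET (streptavidin-XL665, Tb-cryptate anti-phosphotyrosine) as the 665/620 nm emission ratio.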

CSNK1D = CSNK1D (Homo sapiens (Human), UniProt P48730); assay: CSNK1D Assay (ADP-Glo, 1 μM ATP); settings: median, read-out: CSNK1D IC50 [mol/l] (median)
Outline: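 Enzyme preincubated with compound 15 min at 22° C in 50 mM HEPES pH 7.5 buffer with 10 mM MgCl2, 1 mM DTT; kinase reaction run at 1 μM ATP with biotinylated peptide substrate. ADP formed was detected by ADP-Glo luminescence as the measure of activity.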

[2] = EGFR Wildtyp 2 mM ATP IC50 [mol/l] (median), median or individual measurements
[3] = read-out: EGFR Wildtyp 2 mM ATP IC50 [mol/l] (median), median or individual measurements

Chain of CSNK1A1 (P48729 whole entry): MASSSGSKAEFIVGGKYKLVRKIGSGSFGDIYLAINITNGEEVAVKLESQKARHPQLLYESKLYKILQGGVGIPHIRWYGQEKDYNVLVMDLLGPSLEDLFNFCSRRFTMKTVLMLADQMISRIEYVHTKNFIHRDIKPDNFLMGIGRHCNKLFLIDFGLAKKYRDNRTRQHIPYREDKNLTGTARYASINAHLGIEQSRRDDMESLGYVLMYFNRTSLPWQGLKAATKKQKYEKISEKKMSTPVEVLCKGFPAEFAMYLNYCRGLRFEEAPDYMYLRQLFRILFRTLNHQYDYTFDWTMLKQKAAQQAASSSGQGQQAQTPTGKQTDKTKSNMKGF
Chain of CSNK1D (P48730 whole entry): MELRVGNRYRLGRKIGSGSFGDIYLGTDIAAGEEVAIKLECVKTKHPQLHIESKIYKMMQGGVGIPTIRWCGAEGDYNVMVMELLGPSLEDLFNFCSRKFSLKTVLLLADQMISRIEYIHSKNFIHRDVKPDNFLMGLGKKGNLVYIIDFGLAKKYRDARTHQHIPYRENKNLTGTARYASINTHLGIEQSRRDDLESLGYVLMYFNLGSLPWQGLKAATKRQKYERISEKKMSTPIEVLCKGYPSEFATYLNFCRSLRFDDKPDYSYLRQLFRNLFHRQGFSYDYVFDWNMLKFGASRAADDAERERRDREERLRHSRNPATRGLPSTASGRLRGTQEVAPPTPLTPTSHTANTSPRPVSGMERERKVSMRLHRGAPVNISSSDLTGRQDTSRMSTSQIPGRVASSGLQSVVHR
Chain of wild-type Epidermal Growth Factor Receptor (EGFR) (P00533 669-1210): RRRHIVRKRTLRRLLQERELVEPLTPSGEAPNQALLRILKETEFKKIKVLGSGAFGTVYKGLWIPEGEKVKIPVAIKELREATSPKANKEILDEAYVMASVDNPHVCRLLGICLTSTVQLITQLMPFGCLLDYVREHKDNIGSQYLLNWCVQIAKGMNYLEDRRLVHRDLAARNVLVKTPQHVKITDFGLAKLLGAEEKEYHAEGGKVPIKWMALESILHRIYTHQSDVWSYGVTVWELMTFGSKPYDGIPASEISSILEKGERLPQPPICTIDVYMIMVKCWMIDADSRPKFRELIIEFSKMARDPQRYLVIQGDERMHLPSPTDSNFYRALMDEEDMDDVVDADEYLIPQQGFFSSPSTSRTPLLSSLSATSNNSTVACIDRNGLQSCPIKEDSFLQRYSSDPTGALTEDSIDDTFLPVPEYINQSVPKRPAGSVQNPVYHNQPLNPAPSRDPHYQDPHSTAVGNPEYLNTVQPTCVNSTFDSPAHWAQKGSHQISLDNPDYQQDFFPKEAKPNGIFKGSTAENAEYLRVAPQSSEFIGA

Row | SMILES | pIC50 (CSNK1A1) | pIC50 [1, 2] | pIC50 (CSNK1D) | pIC50 [1, 3]
1 | Cn1ccc2[nH]c(-c3ccnc(NC(=O)C(CC(F)F)c4ccc(F)cc4)c3)c(-c3ccc(Cl)s3)c2c1=O (racemic) [Example 133, N-{4-[3-(5-chloro-2-thienyl)-5-methyl-4-oxo-4,5-dihydro-1H-pyrrolo[3,2-c]pyridin-2-yl]pyridin-2-yl}-4,4-difluoro-2-(4-fluorophenyl)butanamide] | 8.64 | < 4.70 | 8.32 | 
2 | O=C(Nc1cc(-c2[nH]c3ccn(C4CC4)c(=O)c3c2-c2ccc(F)cc2)ccn1)C(CC(F)F)c1ccc(F)cc1 (racemic) [Example 134, N-{4-[5-cyclopropyl-3-(4-fluorophenyl)-4-oxo-4,5-dihydro-1H-pyrrolo[3,2-c]pyridin-2-yl]pyridin-2-yl}-4,4-difluoro-2-(4-fluorophenyl)butanamide] | 8.26 | < 4.70 | 8.15 | 
3 | O=C(Nc1cc(-c2[nH]c3ccn(C4CC4)c(=O)c3c2-c2ccccc2)ccn1)C(CC(F)F)c1ccc(F)cc1 (racemic) [Example 137, N-[4-(5-cyclopropyl-4-oxo-3-phenyl-4,5-dihydro-1H-pyrrolo[3,2-c]pyridin-2-yl)pyridin-2-yl]-4,4-difluoro-2-(4-fluorophenyl)butanamide] | 8.59 | < 4.70 | 8.52 | 
4 | CN1CCc2[nH]c(-c3ccnc(NC(=O)C(CC(F)F)c4ccc(F)cc4)c3)c(-c3cscn3)c2C1=O (racemic) [Example 138, 4,4-difluoro-2-(4-fluorophenyl)-N-{4-[5-methyl-4-oxo-3-(1,3-thiazol-4-yl)-4,5,6,7-tetrahydro-1H-pyrrolo[3,2-c]pyridin-2-yl]pyridin-2-yl}butanamide] | 8.05 | < 4.70 | 8.06 | 
5 | CN1CCc2[nH]c(-c3ccnc(NC(=O)C(CC(F)F)c4ccc(F)cc4)c3)c(-c3ccc(F)cc3)c2C1=O (racemic) [Example 139, 4,4-difluoro-2-(4-fluorophenyl)-N-{4-[3-(4-fluorophenyl)-5-methyl-4-oxo-4,5,6,7-tetrahydro-1H-pyrrolo[3,2-c]pyridin-2-yl]pyridin-2-yl}butanamide] | 8.38 | < 4.70 | 8.26 | 
6 | CC(C(=O)Nc1cc(-c2[nH]c3ccn(C)c(=O)c3c2-c2ccc(F)nc2)ccn1)c1ccc(F)cc1 (racemic) [Example 145, 2-(4-fluorophenyl)-N-{4-[3-(6-fluoropyridin-3-yl)-5-methyl-4-oxo-4,5-dihydro-1H-pyrrolo[3,2-c]pyridin-2-yl]pyridin-2-yl}propanamide] | 8.01 | < 4.70 | 8.00 | 
7 | Cn1cc(CC(F)F)c2[nH]c(-c3ccnc(NC(=O)C(CC(F)F)c4ccc(F)cc4)c3)c(-c3ccccc3)c2c1=O (racemic) [Example 147, (rac)-N-{4-[7-(2,2-difluoroethyl)-5-methyl-4-oxo-3-phenyl-4,5-dihydro-1H-pyrrolo[3,2-c]pyridin-2-yl]pyridin-2-yl}-4,4-difluoro-2-(4-fluorophenyl)butanamide] | 8.37 | < 4.70 | 8.54 | 
8 | CN1CC(C)(C)c2[nH]c(-c3ccnc(NC(=O)C(CC(F)F)c4ccc(F)cc4)c3)c(-c3ccccc3)c2C1=O (racemic) [Example 150, (rac)-4,4-difluoro-2-(4-fluorophenyl)-N-[4-(5,7,7-trimethyl-4-oxo-3-phenyl-4,5,6,7-tetrahydro-1H-pyrrolo[3,2-c]pyridin-2-yl)pyridin-2-yl]butanamide] | 8.39 | < 4.70 | 8.42 | 
9 | CC(C(=O)Nc1cc(-c2[nH]c3c(c2-c2ccccc2)C(=O)N(C)CC3)ccn1)c1ccncc1 (racemic) [Example 153, (Rac)-N-[4-(5-methyl-4-oxo-3-phenyl-4,5,6,7-tetrahydro-1H-pyrrolo[3,2-c]pyridin-2-yl)pyridin-2-yl]-2-(pyridin-4-yl)propanamide] | 8.70 | < 4.70 | 8.62 | 
10 | O=C(Nc1cc(-c2[nH]c3c(c2-c2ccccc2)C(=O)N(C2CC2)CC3)ccn1)C(CC(F)F)c1ccc(F)cc1 (racemic) [Example 156, (2RS)—N-(4-(5-cyclopropyl-4-oxo-3-phenyl-4,5,6,7-tetrahydro-1H-pyrrolo[3,2-c]pyridin-2-yl)pyridin-2-yl)-4,4-difluoro-2-(4-fluorophenyl)butanamide] | 8.64 | < 4.70 | 8.51 | 
11 | O=C(Nc1cc(-c2[nH]c3ccn(C4CC4)c(=O)c3c2-c2ccccn2)ccn1)C(CC(F)F)c1ccc(F)cc1 (racemic) [Example 160, (2RS)—N-{4-[5-cyclopropyl-4-oxo-3-(pyridin-2-yl)-4,5-dihydro-1H-pyrrolo[3,2-c]pyridin-2-yl]pyridin-2-yl}-4,4-difluoro-2-(4-fluorophenyl)butanamide] | 8.06 | < 4.70 | 8.00 | 
12 | O=C(Nc1cc(-c2[nH]c3c(Cl)cn(C4CC4)c(=O)c3c2-c2ccc(F)cc2)ccn1)C(CC(F)F)c1ccc(F)cc1 (racemic) [Example 161, (2RS)—N-{4-[7-chloro-5-cyclopropyl-3-(4-fluorophenyl)-4-oxo-4,5-dihydro-1H-pyrrolo[3,2-c]pyridin-2-yl]pyridin-2-yl}-4,4-difluoro-2-(4-fluorophenyl)butanamide] | 7.70 | < 4.70 | 7.96 | 
13 | Cn1cc(CC(F)(F)F)c2[nH]c(-c3ccnc(NC(=O)C(CC(F)F)c4ccc(F)cc4)c3)c(-c3ccccn3)c2c1=O (racemic) [Example 162, (2RS)-4,4-difluoro-2-(4-fluorophenyl)-N-{4-[5-methyl-4-oxo-3-(pyridin-2-yl)-7-(2,2,2-trifluoroethyl)-4,5-dihydro-1H-pyrrolo[3,2-c]pyridin-2-yl]pyridin-2-yl}butanamide] | 7.85 | < 4.70 | 7.92 | 
14 | CN1CCc2[nH]c(-c3ccnc(NC(=O)C(CC(F)F)c4ccc(F)cc4)c3)c(-c3ccc(F)cc3F)c2C1=O (single isomer, unassigned) [Example 67, N-{4-[3-(2,4-difluorophenyl)-5-methyl-4-oxo-4,5,6,7-tetrahydro-1H-pyrrolo[3,2-c]pyridin-2-yl]pyridin-2-yl}-4,4-difluoro-2-(4-fluorophenyl)butanamide] | 7.80 | < 4.70 | 8.07 | 
15 | CN1CCc2[nH]c(-c3ccnc(NC(=O)C(CC(F)F)c4ccc(F)cc4)c3)c(-c3ccc(F)cc3F)c2C1=O (single isomer, unassigned) [Example 68, N-{4-[3-(2,4-difluorophenyl)-5-methyl-4-oxo-4,5,6,7-tetrahydro-1H-pyrrolo[3,2-c]pyridin-2-yl]pyridin-2-yl}-4,4-difluoro-2-(4-fluorophenyl)butanamide] | 8.39 |  | 8.25 | < 4.70
16 | CC(C(=O)Nc1cc(-c2[nH]c3c(c2-c2ccc(F)cc2F)C(=O)N(C)CC3)ccn1)c1ccc(F)cc1 (single isomer, unassigned) [Example 70, N-{4-[3-(2,4-difluorophenyl)-5-methyl-4-oxo-4,5,6,7-tetrahydro-1H-pyrrolo[3,2-c]pyridin-2-yl]pyridin-2-yl}-2-(4-fluorophenyl)propanamide] | 7.80 | < 4.70 | 8.12 | 
17 | CC(C(=O)Nc1cc(-c2[nH]c3c(c2-c2ccc(F)cc2F)C(=O)N(C)CC3)ccn1)c1ccc(F)cc1 (single isomer, unassigned) [Example 71, N-{4-[3-(2,4-difluorophenyl)-5-methyl-4-oxo-4,5,6,7-tetrahydro-1H-pyrrolo[3,2-c]pyridin-2-yl]pyridin-2-yl}-2-(4-fluorophenyl)propanamide] | 8.77 |  | 8.68 | < 4.70
18 | CC(C(=O)Nc1cc(-c2[nH]c3c(c2-c2ccc(F)cc2)C(=O)NC(C)(C)C3)ccn1)c1ccc(F)cc1 (single isomer, unassigned) [Example 95, 2-(4-fluorophenyl)-N-{4-[3-(4-fluorophenyl)-6,6-dimethyl-4-oxo-4,5,6,7-tetrahydro-1H-pyrrolo[3,2-c]pyridin-2-yl]pyridin-2-yl}propanamide] | 7.85 | < 4.70 | 8.34 | 
19 | CC(C(=O)Nc1cc(-c2[nH]c3c(c2-c2ccc(F)cc2)C(=O)NC(C)(C)C3)ccn1)c1ccc(F)cc1 (single isomer, unassigned) [Example 96, 2-(4-fluorophenyl)-N-{4-[3-(4-fluorophenyl)-6,6-dimethyl-4-oxo-4,5,6,7-tetrahydro-1H-pyrrolo[3,2-c]pyridin-2-yl]pyridin-2-yl}propanamide] | 8.89 |  | 8.70 | < 4.70
20 | CC(C(=O)Nc1cc(-c2[nH]c3c(c2-c2cccnc2)C(=O)NC(C)(C)C3)ccn1)c1ccc(F)cc1 (single isomer, unassigned) [Example 98, N-{4-[6,6-dimethyl-4-oxo-3-(pyridin-3-yl)-4,5,6,7-tetrahydro-1H-pyrrolo[3,2-c]pyridin-2-yl]pyridin-2-yl}-2-(4-fluorophenyl)propanamide] | 7.15 | < 4.70 | 7.72 | 
